Reference: article PMC10539439 (Pharmacological Reports, 2023)
Several values for one entry are separate records, joined by “and”; a condition that tells them apart may be missing. Equal values may be shown once. Read-outs that look alike come from different tables or passages of the source. Values belong to the molecule of their own block, whether it stands above or below them.

Key:
α1-adrenoceptor = experiment: Competitive radioligand-binding assay, [3H]prazosin; set-up: species or system rat
Protocol: (§1) 10 mM stock solutions of test compounds were prepared in DMSO. Serial dilutions of compounds were prepared in 96-well microplate in assay buffers using an automated pipetting system epMotion 5070 (Eppendorf, Poland). Each compound was tested in 6 concentrations of 1.0E-05 to 1.0E-10 M (final concentration).
(§2) Affinity towards α1- and α2-adrenoceptors was evaluated using the competitive radioligand-binding assay. Experiments were conducted in the rat cerebral cortex. Radioligand [3H]prazosin (84,2 Ci/mmol, α1-adrenoceptor, PerkinElmer, Poland, NET823001MC) and [3H]clonidine (70.5 Ci/mmol, α2-adrenoceptor, PerkinElmer, Poland, NET613250UC) were used. The membrane preparation and the assay procedure were carried out accordingly as previously published. Radioactivity was counted on the MicroBeta2 scintillation counter (PerkinElmer, Poland). Data were fitted to a one-site curve-fitting equation with Prism 8 (GraphPad Software, USA), and Ki values were estimated from the Cheng–Prusoff equation.

α2-adrenoceptor = biological target: T1, α2-adrenoceptor (Rattus norvegicus, UniProt P22909); experiment: Competitive radioligand-binding assay, [3H]clonidine; conditions: ADRA2, experiments 1-3, duplicates
T1 sequence (P22909 1-465): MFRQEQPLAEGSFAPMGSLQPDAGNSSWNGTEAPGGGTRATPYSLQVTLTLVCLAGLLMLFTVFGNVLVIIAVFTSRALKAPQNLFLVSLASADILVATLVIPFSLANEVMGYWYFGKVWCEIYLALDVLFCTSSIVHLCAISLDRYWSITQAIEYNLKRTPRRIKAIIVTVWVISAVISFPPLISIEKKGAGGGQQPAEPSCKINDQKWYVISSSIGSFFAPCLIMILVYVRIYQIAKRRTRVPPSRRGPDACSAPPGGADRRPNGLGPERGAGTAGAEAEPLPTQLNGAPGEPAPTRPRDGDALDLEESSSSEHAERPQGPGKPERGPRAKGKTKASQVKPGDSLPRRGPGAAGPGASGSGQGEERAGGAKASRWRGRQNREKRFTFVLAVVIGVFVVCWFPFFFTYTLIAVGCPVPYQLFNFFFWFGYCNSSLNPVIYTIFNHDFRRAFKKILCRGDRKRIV
Protocol: as §1, §2

α2A-adrenoceptor = biological target: T2, α2A-adrenoceptor (Homo sapiens, UniProt P08913); experiment: Intrinsic activity, Tango beta-lactamase reporter assay; type: cell-based; conditions: ADRAA2A
T2 sequence (P08913 1-465): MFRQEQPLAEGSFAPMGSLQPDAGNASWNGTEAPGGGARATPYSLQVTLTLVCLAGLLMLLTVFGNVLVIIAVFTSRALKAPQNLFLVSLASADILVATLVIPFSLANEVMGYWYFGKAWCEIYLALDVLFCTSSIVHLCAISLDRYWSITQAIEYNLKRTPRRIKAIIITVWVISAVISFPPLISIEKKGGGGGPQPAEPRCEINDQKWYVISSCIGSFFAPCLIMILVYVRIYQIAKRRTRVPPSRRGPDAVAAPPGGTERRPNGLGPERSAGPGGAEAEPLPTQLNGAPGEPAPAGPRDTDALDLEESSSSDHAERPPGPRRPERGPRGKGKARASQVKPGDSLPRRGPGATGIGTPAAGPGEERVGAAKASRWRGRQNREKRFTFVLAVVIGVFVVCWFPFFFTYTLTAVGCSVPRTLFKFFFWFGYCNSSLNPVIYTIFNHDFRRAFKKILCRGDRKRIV
Protocol: The intrinsic activity at α2A-adrenoceptor was assessed by the Tango assay technology that uses a mammalian-optimized beta-lactamase (bla) reporter gene combined with an FRET-enabled substrate to provide reliable and sensitive detection in cells. Cells are loaded with an engineered fluorescent substrate containing two fluorophores, coumarin, and fluorescein. In the absence of bla expression, the substrate molecule remains intact. In this state, excitation of the coumarin results in a transfer of fluorescence resonance energy to the fluorescein moiety and emission of green fluorescent light. However, in the presence of bla expression, the substrate is cleaved, separating the fluorophores and disrupting energy transfer. Excitation of the coumarin in the presence of bla enzyme activity results in a blue fluorescence signal.
Intrinsic activity assay was performed according to the manufacturer of the assay kit (Invitrogen, Life Technologies). Cells were harvested and resuspended in an assay medium at a density of 312,500 cells/ml. 32 μL per well of cell suspension was added to the test compound wells, the unstimulated control wells, and the stimulated control wells, and incubated for 16–24 h. To perform an agonist assay, 8 μL of 5 × of agonist in the assay medium was added to the cells. […] Then, the agonist and antagonist plates were incubated in a humidified incubator at 37 °C/5% CO2 for 5 h. After the incubation, 8 μL of LiveBLAzer™-FRET B/G substrate mixture (CCF4-AM) was loaded into cells in the absence of direct strong lighting, covered, and incubated at room temperature for 2 h.

Ki (α1-adrenoceptor; ADRA1, experiment 1, 2, 3, read-out: Ki, single experiments): 14.9 nM and 9.23 nM and 10.1 nM | Ki (α1-adrenoceptor; [3H] prazosin, rat cerebral cortex, mean ± SEM, n = 3, read-out: Ki): 11.3 ± 1.7 nM
Structure (SMILES): Cc1ccc(N(CC2=NCCN2)c2cccc(O)c2)cc1 [Phentolamine]

Structure (SMILES): CNC[C@H](O)c1cccc(O)c1 [Phenylephrine]
CPM (α2-adrenoceptor; log of molar concentration -5): 141 CPM and 116 CPM and 96 CPM and 109 CPM and 123 CPM and 92 CPM | CPM (α2-adrenoceptor; log of molar concentration -6): 126 CPM and 136 CPM and 132 CPM and 152 CPM and 190 CPM and 224 CPM | CPM (α2-adrenoceptor; log of molar concentration -7): 392 CPM and 260 CPM and 300 CPM and 297 CPM and 293 CPM | CPM (α2-adrenoceptor; log of molar concentration -8): 433 CPM and 441 CPM and 410 CPM and 390 CPM and 339 CPM and 367 CPM | CPM (α2-adrenoceptor; log of molar concentration -9): 380 CPM and 398 CPM and 394 CPM and 410 CPM and 367 CPM and 391 CPM | CPM (α2-adrenoceptor; log of molar concentration -10): 502 CPM and 429 CPM and 290 CPM and 400 CPM and 415 CPM and 423 CPM

% of max response (α2A-adrenoceptor; antagonist vs brimonidine EC80, concentration 1e-11): 99.193% and 99.631% | % of max response (α2A-adrenoceptor; antagonist vs brimonidine EC80, concentration 1e-10): 89.6162% | % of max response (α2A-adrenoceptor; antagonist vs brimonidine EC80, concentration 1e-9): 70.6442% and 68.4607% | % of max response (α2A-adrenoceptor; antagonist vs brimonidine EC80, concentration 1e-8): 17.048% and 15.1589% | % of max response (α2A-adrenoceptor; antagonist vs brimonidine EC80, concentration 1e-7): 6.64% | % of max response (α2A-adrenoceptor; antagonist vs brimonidine EC80, concentration 1e-6): 8.3079%
Structure (SMILES): COC(=O)[C@@H]1[C@H]2C[C@H]3c4[nH]c5ccccc5c4CCN3C[C@@H]2CC[C@@H]1O [Yohimbine]

Structure (SMILES): Brc1c(NC2=NCCN2)ccc2nccnc12 [brimonidine]
% of max response (α2A-adrenoceptor; agonist, concentration 1e-11): -0.4968% and 2.419% and -2.234% and 0.961% | % of max response (α2A-adrenoceptor; agonist, concentration 1e-10): 2.567% and 0.2495% and -1.378% and 1.408% | % of max response (α2A-adrenoceptor; agonist, concentration 1e-9): 4.21% and 2.461% and -0.5064% and 3.335% | % of max response (α2A-adrenoceptor; agonist, concentration 1e-8): 48.0757% and 59.1796% and 30.9499% and 53.6276% | % of max response (α2A-adrenoceptor; agonist, concentration 1e-7): 88.9964% and 81.4266%
